Data as given in patent publication EP1714638A1, “Cosmetic deodorant composition comprising a combination of zinc salicylate or a derivative thereof with an aluminium salt antiperspirant active” (L'ORÉAL, priority 2005, dated 2006).

Assay: Deodorant efficacy test: odour intensity of incubated axillary sweat rated by an expert panel
Design: species or system humaine
Details: 24 heures d'incubation à 37°C, versus control sweat without active, scale 0-4
Description: Des recueils de sueur axillaire sont effectués en sauna sur 6 volontaires, les échantillons de sueur individuelle, conservés dans la glace pendant quelques heures, sont alors pratiquement inodores. Ils sont ensuite mélangés et répartis en aliquots de 1 ml. Les actifs sont rajoutés à ces aliquots, puis mis à incuber à l'étuve 37°C. Après 24 heures d'incubation, un jury d'experts évalue l'intensité de l'odeur comparativement à un échantillon témoin : 1 ml de sueur incubée sans ajout d'actif. L'intensité est évaluée sur une échelle de 0 (pas d'odeur) à 4 (très forte odeur).
Les résultats sont exprimés en % de variation de l'intensité de l'odeur comparativement à cet échantillon de sueur témoin (moyenne des % de variation à T24h). Δ = ((intensité odeur de l'échantillon témoin−intensité odeur de l'échantillon avec actif))/(intensité odeur de l'échantillon témoin) × 100 [formula]

Compound	% de diminution de l'intensité de l'odeur (0,1 mg MA/ml de sueur) [%]	also measured
Aluminium chlorohydrate [ACH]	-35	
Oc1cc(Cl)ccc1Oc1ccc(Cl)cc1Cl [(B), 2,4,4'-trichloro-2'-hydroxydiphényléther]		% de diminution de l'intensité de l'odeur (0,4 mg MA/ml de sueur): -49%
Salicylate de zinc [(A)]	-21	
CCCCCC[C@@H](O)C/C=C\CCCCCCCC(=O)[O-].CCCCCC[C@@H](O)C/C=C\CCCCCCCC(=O)[O-].[Zn+2] [(C), Ricinoleate de zinc]		% de diminution de l'intensité de l'odeur (0,3 mg MA/ml de sueur): -4%
